According to patent US9605000B2, “Spiro azetidine isoxazole derivatives and their use as SSTR antagonists” (Takeda Pharmaceutical Company Limited, priority 2013, dated 2017):

Assays:
[1] = target: T1, human SSTR5 (Homo sapiens, UniProt P35346); assay: Human SSTR5 antagonist activity using intracellular cAMP concentration as indicator (somatostatin 28, Test Example 2); format: cell-based; details: 1 μM test compound; somatostatin 28 and 0.3 μM forskolin; CHO (dhfr-) cells expressing human SSTR5; HTRF cAMP; read-out: Inhibition rate (%) with respect to SSTR5 in concentration of 1 μM
T1 construct: expressed in transfected cells
Method: Evaluation of Human SSTR5 Antagonist Activity Using an Intracellular cAMP Concentration as an Indicator
Measurement of the intracellular cAMP concentration was performed using a HTRF cAMP dynamic 2 kit (manufactured by Cisbio). A test compound which was diluted with an assay buffer (5 mM HEPES (pH 7.5) (manufactured by Invitrogen Corp.), 0.1% fatty-acid free BSA (manufactured by Sigma-Aldrich, Inc.), HBSS (manufactured by Invitrogen Corp.) containing 500 μM IBMX (manufactured by Wako Pure Chemical Industries, Ltd) was added by 2 μL/well to a 384 well white plate (manufactured by Greiner) such that a final concentration become 1 μM. A frozen stock, which was stably expressed dihydrofolate reductase-deficient CHO (dhfr-) cells in which human SSTR5 gene (Accession No. NM001053) was melted in a thermostatic chamber at 37° C., and it was suspended on a medium of subculture (medium prepared from MEM alpha (manufactured by Wako Pure Chemical Industries, Ltd.), 10% dialyzed serum (manufacture by Gemini Co., Ltd.) and 50 μg/mL gentamicin (manufactured by Invitrogen Corp.). After centrifuging the cell suspension, the cell suspension was resuspended using the assay buffer, and the resultant was added to each well by 2 μL/well to be 4000 cells/well. After a test compound and cells were incubated for 15 minutes. An assay buffer which contains 0.1 nM of somatostatin 28 (manufactured by Toray Research Center) and 0.3 μM of forskolin (manufactured by Wako Pure Chemical Industries, Ltd) as a final concentration was added by […], and incubation was performed for 30 minutes at room temperature. Each of cAMP-d2 and anti-cAMP-cryptate was added by 3 μL/well, it was allowed to stand for 60 minutes at room temperature, and FRET (Fluorescence resonance energy transfer) intensity was measured using Multi-label reader Envision (manufactured by Perkin Elmer Inc.). Using the calibration curve prepared from the FRET intensity of well groups in which cAMP as arbitrary concentration was added to an assay buffer, FRET intensity of wells in which a test compound group was added was converted into cAMP concentration. Inhibitory activity of compounds was calculated using the following equation. Inhibitory activity (%)=(C−B)/(A−B)×100 A: cAMP concentration calculated from wells in which 0.3 μM of forskolin is added B: cAMP concentration calculated from wells in which 0.3 μM of forskolin and 1 nM of somatostatin 28 are added C: cAMP concentration wells in which 0.3 μM of forskolin, 1 nM of somatostatin 28 and 1 μM of test compound are added
Inhibition rates (%) are described in Table 3 with respect to SSTR5 in concentration of 1 μM of a test compound.

[2] = target: T1, human SSTR5; assay: Human SSTR5 antagonist activity using intracellular cAMP concentration as indicator (somatostatin 14, Test Example 1); format: cell-based; details: 1 μM test compound, 1 nM somatostatin 14 and 0.3 μM forskolin, CHO (dhfr-) cells expressing human SSTR5, HTRF cAMP; for inhibition at 1 µM: read-out: Inhibition rate (%) with respect to SSTR5 in concentration of 1 μM
How it was run: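 dhfr- CHO cells stably expressing human SSTR5 preincubated 15 min with compound (1 μM final) in HEPES pH 7.5/BSA/500 μM IBMX buffer, then stimulated 30 min at room temperature with 1 nM somatostatin 14 plus 0.3 μM forskolin. cAMP read by HTRF; % inhibition of somatostatin-lowered cAMP reported.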

T1 sequence (P35346 whole entry): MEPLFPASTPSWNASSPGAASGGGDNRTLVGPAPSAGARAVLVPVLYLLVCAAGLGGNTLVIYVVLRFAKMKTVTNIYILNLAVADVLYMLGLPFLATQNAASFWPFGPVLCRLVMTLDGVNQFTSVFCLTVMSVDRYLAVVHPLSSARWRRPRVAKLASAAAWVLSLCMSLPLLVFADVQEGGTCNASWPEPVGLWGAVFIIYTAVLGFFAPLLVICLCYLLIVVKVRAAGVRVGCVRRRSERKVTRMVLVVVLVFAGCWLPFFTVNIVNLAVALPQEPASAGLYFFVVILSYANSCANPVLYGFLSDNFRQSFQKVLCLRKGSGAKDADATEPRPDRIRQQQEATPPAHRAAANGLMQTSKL

Structure (SMILES) | inhibition at 1 µM [1] [%] | inhibition at 1 µM [2] [%] | other results
COc1c(CN2CC3(CC(N4CCC(C)(C(=O)O)CC4)=NO3)C2)cc(C2CC2)c(-c2ccc(F)cc2F)c1F [Example 259, 1-(2-((6-Cyclopropyl-2,2′,4′-trifluoro-3-methoxybiphenyl-4-yl)methyl)-5-oxa-2,6-diazaspiro[3.4]oct-6-en-7-yl)-4-methylpiperidine-4-carboxylic acid] | 90 | – | –
CCOc1c(CN2CC3(CC(N4CCC(C(=O)O)CC4)=NO3)C2)cc(C2CC2)c(-c2ccc(F)cc2)c1F [Example 261, 1-(2-((6-Cyclopropyl-3-ethoxy-2,4′-difluorobiphenyl-4-yl)methyl)-5-oxa-2,6-diazaspiro[3.4]oct-6-en-7-yl)piperidine-4-carboxylic acid] | 92 | – | –
COc1c(CN2CC3(CC(N4CCC(C(=O)O)CC4)=NO3)C2)cc(C2CC2)c(-c2ccc(F)cc2)c1F [Example 266, 1-(2-((6-Cyclopropyl-2,4′-difluoro-3-methoxybiphenyl-4-yl)methyl)-5-oxa-2,6-diazaspiro[3.4]oct-6-en-7-yl)piperidine-4-carboxylic acid] | 88 | – | –
COc1c(CN2CC3(CC(N4CCC(C)(C(=O)O)CC4)=NO3)C2)cc(C2CC2)c(-c2ccc(F)cc2F)c1Cl [Example 258, 1-(2-((2-Chloro-6-cyclopropyl-2′,4′-difluoro-3-methoxybiphenyl-4-yl)methyl)-5-oxa-2,6-diazaspiro[3.4]oct-6-en-7-yl)-4-methylpiperidine-4-carboxylic acid] | 124 | – | –
CC(C)Oc1c(CN2CC3(CC(N4CCC(C)(C(=O)O)CC4)=NO3)C2)cc(C2CC2)c(C2CC2)c1F [Example 256, 1-(2-(4,5-Dicyclopropyl-3-fluoro-2-isopropoxybenzyl)-5-oxa-2,6-diazaspiro[3.4]oct-6-en-7-yl)-4-methylpiperidine-4-carboxylic acid] | 121 | – | –
CCC1(C(=O)O)CCN(C2=NOC3(C2)CN(Cc2cc(C4CC4)c(-c4ccc(F)cc4F)c(Cl)c2OC)C3)CC1 [Example 262, 1-(2-((2-Chloro-6-cyclopropyl-2′,4′-difluoro-3-methoxybiphenyl-4-yl)methyl)-5-oxa-2,6-diazaspiro[3.4]oct-6-en-7-yl)-4-ethylpiperidine-4-carboxylic acid] | 100 | – | –
CCOc1c(CN2CC3(CC(N4CCC(C)(C(=O)O)CC4)=NO3)C2)cc(C2CC2)c(-c2ccc(F)cc2)c1Cl [Example 239, 1-(2-((2-Chloro-6-cyclopropyl-3-ethoxy-4′-fluorobiphenyl-4-yl)methyl)-5-oxa-2,6-diazaspiro[3.4]oct-6-en-7-yl)-4-methylpiperidine-4-carboxylic acid] | 94 | – | –
CC(C)Oc1cc(C2CC2)c(C2CC2)cc1CN1CC2(CC(N3CCC(C)(C(=O)O)CC3)=NO2)C1 [Example 248, 1-(2-(4,5-Dicyclopropyl-2-isopropoxybenzyl)-5-oxa-2,6-diazaspiro[3.4]oct-6-en-7-yl)-4-methylpiperidine-4-carboxylic acid] | 102 | – | –
CCOc1cc(C2CC2)c(C2CC2)cc1CN1CC2(CC(N3CCC(C)(C(=O)O)CC3)=NO2)C1 [Example 250, 1-(2-(4,5-Dicyclopropyl-2-ethoxybenzyl)-5-oxa-2,6-diazaspiro[3.4]oct-6-en-7-yl)-4-methylpiperidine-4-carboxylic acid] | 98 | – | –
CCOc1cc(CN2CC3(CC(N4CCC(C)(C(=O)O)CC4)=NO3)C2)cc(C(F)(F)F)c1-c1ccc(F)cc1 [Example 87, 1-(2-((2-Ethoxy-4′-fluoro-6-(trifluoromethyl)biphenyl-4-yl)methyl)-5-oxa-2,6-diazaspiro[3.4]oct-6-en-7-yl)-4-methylpiperidine-4-carboxylic acid] | – | 108 | –
CCOc1cc(CN2CC3(CC(N4CCC(C)(C(=O)O)CC4)=NO3)C2)cc(C2CC2(F)F)c1-c1ccc(F)cc1 (stereo not drawn) [Example 171, 1-(2-((2-(2,2-difluorocyclopropyl)-6-ethoxy-4′-fluorobiphenyl-4-yl)methyl)-5-oxa-2,6-diazaspiro[3.4]oct-6-en-7-yl)-4-methylpiperidine-4-carboxylic acid] | – | – | Inhibition rate (%) with respect to SSTR5 in concentration of 1 μM [2]: 97%
CCC1(C(=O)O)CCN(C2=NOC3(C2)CN(Cc2cc(C4CC4)c(-c4ccc(F)cc4)cc2OC)C3)CC1 [Example 192, 1-(2-((2-Cyclopropyl-4′-fluoro-5-methoxybiphenyl-4-yl)methyl)-5-oxa-2,6-diazaspiro[3.4]oct-6-en-7-yl)-4-ethylpiperidine-4-carboxylic acid] | – | 117 | –
CCOc1c(CN2CC3(CC(N4CCC(C)(C(=O)O)CC4)=NO3)C2)cc(C2CC2)c(C2CC2)c1F [Example 257, 1-(2-(4,5-Dicyclopropyl-2-ethoxy-3-fluorobenzyl)-5-oxa-2,6-diazaspiro[3.4]oct-6-en-7-yl)-4-methylpiperidine-4-carboxylic acid] | 117 | – | –
CCOc1cc(CN2CC3(CC(N4CCC(C)(C(=O)O)CC4)=NO3)C2)cc(C(F)(F)C(F)(F)F)c1-c1ccc(F)cc1 [Example 167, 1-(2-((2-Ethoxy-4′-fluoro-6-(pentafluoroethyl)biphenyl-4-yl)methyl)-5-oxa-2,6-diazaspiro[3.4]oct-6-en-7-yl)-4-methylpiperidine-4-carboxylic acid] | – | 102 | –
CC1(C(=O)O)CCN(C2=NOC3(C2)CN(Cc2cc(OCC4CC4(F)F)c(-c4ccc(F)cc4)c(C4CC4)c2)C3)CC1 (stereo not drawn) [Example 104, 1-(2-((2-Cyclopropyl-6-((2,2-difluorocyclopropyl)methoxy)-4′-fluorobiphenyl-4-yl)methyl)-5-oxa-2,6-diazaspiro[3.4]oct-6-en-7-yl)-4-methylpiperidine-4-carboxylic acid] | – | 100 | –
CCOc1cc(-c2ccc(F)cc2)c(C2CC2)cc1CN1CC2(CC([C@H]3CC[C@H](C(=O)O)CC3)=NO2)C1 [Example 194, Trans-4-(2-((2-Cyclopropyl-5-ethoxy-4′-fluorobiphenyl-4-yl)methyl)-5-oxa-2,6-diazaspiro[3.4]oct-6-en-7-yl)cyclohexanecarboxylic acid] | – | 117 | –
CCOc1cc(CN2CC3(CC(N4CCC(C(=O)O)CC4)=NO3)C2)cc(OCC)c1-c1ccc(F)cc1 [Example 2, 1-(2-((2,6-Diethoxy-4′-fluorobiphenyl-4-yl)methyl)-5-oxa-2,6-diazaspiro[3.4]oct-6-en-7-yl)piperidine-4-carboxylic acid] | – | 120 | –
CC1(C(=O)O)CCN(C2=NOC3(C2)CN(Cc2cc(OCCC(F)(F)F)c(-c4ccc(F)cc4)c(C4CC4)c2)C3)CC1 [Example 106, 1-(2-((2-Cyclopropyl-4′-fluoro-6-(3,3,3-trifluoropropoxy)biphenyl-4-yl)methyl)-5-oxa-2,6-diazaspiro[3.4]oct-6-en-7-yl)-4-methylpiperidine-4-carboxylic acid] | – | 91 | –
